Laboratory results: patent US8088819B2, “Derivatives of substituted 3-phenyl-1-(phenylthienyl)propan-1-ones and of 3-phenyl-1-(phenylfuranyl) propan-1-ones, preparation and use” (priority 2006, dated 2012)

Key:
[1] = test system: MCP1 secretion in human monocytes (THP1); assay: MCP1 secretion by human monocytes stimulated with PMA (ELISA); type: cell-based; details: at 1 μm, 24 h
Procedure: The antiinflammatory effects of the compounds according to the invention were evaluated by measuring the secretion and expression of macrophages chemoattractant protein (MCP1) and of matrix metalloproteinase 9 (MMP9) by monocytes treated with the compounds according to the invention for 24 hours and stimulated with PMA (phorbol 12-myristate 13-acetate, which causes an inflammatory response of the cells). The more the amount of MCP1 secreted is reduced, the greater the inhibitory action of the compounds according to the invention on the inflammatory reaction. […]
The treatment medium is recovered and the concentration of MCP1 is measured using the ELISA kit “Human MCP1 Elisa set” (BD OptEIA; 555179) following the manufacturer's recommendations.
A human antiMCP1 monoclonal antibody is fixed on a plate, then the supernatants, containing the MCP1 secreted by the cells, are distributed. […] A third antibody, conjugated and coupled to a peroxidase enzyme, makes it possible, in the presence of substrate, to initiate an enzymatic reaction, the result of which is a coloration that is proportional to the amount of MCP1 fixed, and can be measured by spectrophotometry. […]
The induction factor, i.e. the ratio of the signal induced by the compound according to the invention to the signal of the control group, was then calculated. […]

[2] = test system: C57Bl6 mouse; assay: Plasma cholesterol assays and lipoprotein distribution in the C57Bl6 mouse (compounds 4 and 7); type: in vivo; details: for lipid profile: C57Bl6 mice treated for 14 days; for plasma HDL-cholesterol levels / plasma total cholesterol levels / plasma HDL-cholesterol level (distribution of cholesterol in the plasma lipoprotein fractions): C57Bl6 mouse, 14 days; for plasma HDL-cholesterol levels / plasma total cholesterol levels: 50 mpk oral; for plasma HDL-cholesterol level (distribution of cholesterol in the plasma lipoprotein fractions): 50 mpk
Procedure: The effect of the compounds according to the invention was evaluated in vivo in the C57Bl6 mouse after 14 days of treatment by the oral route. At the end of the treatment, the distribution of cholesterol in the various plasma lipoprotein fractions was determined. This was compared with the profile obtained in the control animals (not treated with the compounds according to the invention). The effect of the compounds according to the invention was evaluated in the C57Bl6 mouse by measuring the plasma levels of total cholesterol and of HDL-cholesterol after 14 days of treatment by the oral route. These levels were compared with those obtained with control animals (not treated with the compounds according to the invention). The measured difference provides evidence of the antilipemic effect of the compounds according to the invention.
Female C57Bl6 mice were kept under a cycle of light and darkness of 12/12 hours at a constant temperature of 20±3° C. After acclimation for one week, the mice were weighed and put into groups of 6 animals selected so that the distribution of their body weight, of their plasma lipid levels and of total cholesterol determined for the first time before the experiment, is uniform. The test compounds were suspended in carboxymethylcellulose (Sigma C4888) and administered by intragastric force feeding, at a rate of once per day for 14 days at the chosen dose. The animals had free access to water and to food (standard diet). At the end of the experiment, the animals were anesthetized after fasting for 4 hours, a blood sample was taken using anticoagulant (EDTA), then the mice were weighed and euthanased. The plasma was separated by centrifugation at 3000 rev/min for 20 minutes, and the samples were stored at +4° C.
The plasma concentrations of total cholesterol were measured by enzyme assays (bioMérieux-Lyon-France) following the supplier's recommendations.
The low-density lipoproteins (VLDL and LDL) were precipitated with phosphotungstate. The precipitate was removed by centrifugation. The HDL-cholesterol present in the supernatant was quantified by enzyme assays (bioMérieux-Lyon-France) following the supplier's recommendations.
The various lipid fractions (VLDL, LDL, HDL) of the plasma were separated by gel filtration chromatography. The concentrations of cholesterol were then measured in each fraction by enzyme assays (bioMérieux-Lyon-France) following the supplier's recommendations.

| Structure (SMILES) | secretion of MCP1 in human monocytes [1] | lipid profile [2] | plasma HDL-cholesterol levels [2] | plasma total cholesterol levels [2] | plasma HDL-cholesterol level (distribution of cholesterol in the plasma lipoprotein fractions) [2] |
| --- | --- | --- | --- | --- | --- |
| CC(C)(Oc1ccc(CCC(=O)c2cc(-c3ccc(C(F)(F)F)cc3)cs2)c(Cl)c1Cl)C(=O)O [Compound 11, 2-(2,3-dichloro-4-(3-oxo-3-(4-(4-(trifluoromethyl)phenyl)thien-2-yl)propyl)phenoxy)-2-methylpropanoic acid] | significant decrease |  |  |  |  |
| CC(C)(Oc1ccc(CCC(OCc2ccccc2)c2ccc(-c3ccc(C(F)(F)F)cc3)s2)c(Cl)c1Cl)C(=O)O (stereo not shown) [Compound 7, 2-(4-(3-(benzyloxy)-3-(5-(4-(trifluoromethyl)phenyl)thien-2-yl)propyl)-2,3-dichlorophenoxy)-2-methylpropanoic acid] | significant decrease | improve | nonsignificant increase | significantly increased | increased |
| CC(C)(Oc1ccc(CCC(O)c2ccc(-c3ccc(C(F)(F)F)cc3)s2)c(Cl)c1Cl)C(=O)O (stereo not shown) [Compound 4, 2-(2,3-dichloro-4-(3-hydroxy-3-(5-(4-(trifluoromethyl)phenyl)thien-2-yl)propyl)phenoxy)-2-methylpropanoic acid] |  | improve | significantly increased | significantly increased | increased |
